Experiments:
Type in all cases: physicochemical
[1] = Alcohol amine added to aqueous PPh solution until single phase observed; conditions: aqueous PPh (34-37 wt % PPh, 39-42 wt % water), room temperature, Formulations B-E
[2] = Alcohol amine added to aqueous EPh solution until single phase observed; conditions: for amount added until a single phase solution was observed: 100 grams total, room temperature
[3] = Alcohol amine added to aqueous benzyl alcohol solution until single phase observed; conditions: aqueous benzyl alcohol (37 wt %, water 42 wt %), room temperature, Formulation F
[4] = listed as of Table 4 with 1 % Eph in H2O, Eph 1 wt % normalized
[5] = listed as of Table 4 with 2.5 % Eph in H2O, Eph 2 wt % normalized
[6] = listed as of Table 4 with 5 % Eph in H2O, Eph 4 wt % normalized
[7] = listed as of Table 4 with 10 % Eph in H2O, Eph 7-8 wt % normalized
[8] = listed as of Table 4 with 15 % Eph in H2O, Eph 10-12 wt % normalized
[9] = listed as of Table 4 with 20 % Eph in H2O, Eph 14-15 wt % normalized
[10] = listed as of Table 4 with 30 % Eph in H2O, Eph 21-23 wt % normalized
[11] = listed as of Table 4 with 50 % Eph in H2O, Eph 36-40 wt % normalized
[12] = listed as of Table 4 with 75 % Eph in H2O, Eph 58-64 wt % normalized

CC(C)(N)CO [AMP, 2-amino-2-methyl-1-propanol]
alcohol amine at single phase, normalized on total weight % [1]: 21 wt % | amount added until a single phase solution was observed ([2]; 1 % Eph in H2O): 4.8 Grams | amount added until a single phase solution was observed ([2]; 2.5 % Eph in H2O): 12.3 Grams | amount added until a single phase solution was observed ([2]; 5 % Eph in H2O): 21.5 Grams | amount added until a single phase solution was observed ([2]; 10 % Eph in H2O): 26.8 Grams | amount added until a single phase solution was observed ([2]; 15 % Eph in H2O): 28.7 Grams | amount added until a single phase solution was observed ([2]; 20 % Eph in H2O): 29.2 Grams | amount added until a single phase solution was observed ([2]; 30 % Eph in H2O): 29 Grams | amount added until a single phase solution was observed ([2]; 50 % Eph in H2O): 26.7 Grams | amount added until a single phase solution was observed ([2]; 75 % Eph in H2O): 17.8 Grams | alcohol amine at single phase, normalized to 100 weight % of water, alcohol amine and EPh [2, 4]: 5 wt % | alcohol amine at single phase, normalized to 100 weight % of water, alcohol amine and EPh [2, 5]: 11 wt % | alcohol amine at single phase, normalized to 100 weight % of water, alcohol amine and EPh [2, 6]: 18 wt % | alcohol amine at single phase, normalized to 100 weight % of water, alcohol amine and EPh [2, 7]: 21 wt % | alcohol amine at single phase, normalized to 100 weight % of water, alcohol amine and EPh [2, 8]: 22 wt % | alcohol amine at single phase, normalized to 100 weight % of water, alcohol amine and EPh [2, 9]: 23 wt % | alcohol amine at single phase, normalized to 100 weight % of water, alcohol amine and EPh [2, 10]: 23 wt % | alcohol amine at single phase, normalized to 100 weight % of water, alcohol amine and EPh [2, 11]: 22 wt % | alcohol amine at single phase, normalized to 100 weight % of water, alcohol amine and EPh [2, 12]: 15 wt %

NCCO [MEA, monoethanolamine]
alcohol amine at single phase, normalized on total weight % [1]: 25 wt % | amount added until a single phase solution was observed ([2]; 1 % Eph in H2O): 2.3 Grams | amount added until a single phase solution was observed ([2]; 2.5 % Eph in H2O): 12.7 Grams | amount added until a single phase solution was observed ([2]; 5 % Eph in H2O): 26.9 Grams | amount added until a single phase solution was observed ([2]; 10 % Eph in H2O): 40.5 Grams | amount added until a single phase solution was observed ([2]; 15 % Eph in H2O): 45.4 Grams | amount added until a single phase solution was observed ([2]; 20 % Eph in H2O): 44 Grams | amount added until a single phase solution was observed ([2]; 30 % Eph in H2O): 40 Grams | amount added until a single phase solution was observed ([2]; 50 % Eph in H2O): 34 Grams | amount added until a single phase solution was observed ([2]; 75 % Eph in H2O): 26.1 Grams | alcohol amine at single phase, normalized to 100 weight % of water, alcohol amine and EPh [2, 4]: 2 wt % | alcohol amine at single phase, normalized to 100 weight % of water, alcohol amine and EPh [2, 5]: 11 wt % | alcohol amine at single phase, normalized to 100 weight % of water, alcohol amine and EPh [2, 6]: 21 wt % | alcohol amine at single phase, normalized to 100 weight % of water, alcohol amine and EPh [2, 7]: 29 wt % | alcohol amine at single phase, normalized to 100 weight % of water, alcohol amine and EPh [2, 8]: 32 wt % | alcohol amine at single phase, normalized to 100 weight % of water, alcohol amine and EPh [2, 9]: 30 wt % | alcohol amine at single phase, normalized to 100 weight % of water, alcohol amine and EPh [2, 10]: 29 wt % | alcohol amine at single phase, normalized to 100 weight % of water, alcohol amine and EPh [2, 11]: 26 wt % | alcohol amine at single phase, normalized to 100 weight % of water, alcohol amine and EPh [2, 12]: 20 wt %

CC(O)CN (stereo not shown) [MIPA, monoisopropanolamine]
alcohol amine at single phase, normalized on total weight % [1]: 21 wt % | amount added until a single phase solution was observed ([2]; 1 % Eph in H2O): 3.5 Grams | amount added until a single phase solution was observed ([2]; 2.5 % Eph in H2O): 16 Grams | amount added until a single phase solution was observed ([2]; 5 % Eph in H2O): 26.8 Grams | amount added until a single phase solution was observed ([2]; 10 % Eph in H2O): 32.2 Grams | amount added until a single phase solution was observed ([2]; 15 % Eph in H2O): 33.5 Grams | amount added until a single phase solution was observed ([2]; 20 % Eph in H2O): 32.9 Grams | amount added until a single phase solution was observed ([2]; 30 % Eph in H2O): 31.1 Grams | amount added until a single phase solution was observed ([2]; 50 % Eph in H2O): 26 Grams | amount added until a single phase solution was observed ([2]; 75 % Eph in H2O): 17.5 Grams | alcohol amine at single phase, normalized to 100 weight % of water, alcohol amine and EPh [2, 4]: 3 wt % | alcohol amine at single phase, normalized to 100 weight % of water, alcohol amine and EPh [2, 5]: 14 wt % | alcohol amine at single phase, normalized to 100 weight % of water, alcohol amine and EPh [2, 6]: 21 wt % | alcohol amine at single phase, normalized to 100 weight % of water, alcohol amine and EPh [2, 7]: 24 wt % | alcohol amine at single phase, normalized to 100 weight % of water, alcohol amine and EPh [2, 8]: 25 wt % | alcohol amine at single phase, normalized to 100 weight % of water, alcohol amine and EPh [2, 9]: 25 wt % | alcohol amine at single phase, normalized to 100 weight % of water, alcohol amine and EPh [2, 10]: 24 wt % | alcohol amine at single phase, normalized to 100 weight % of water, alcohol amine and EPh [2, 11]: 20 wt % | alcohol amine at single phase, normalized to 100 weight % of water, alcohol amine and EPh [2, 12]: 15 wt % | alcohol amine at single phase, normalized on total weight % [3]: 21 wt %

— patent US7008911B2, “Non-surfactant solubilizing agent” (Ecolab, Inc., priority 2002, dated 2006)
